“And” between values parts separate entries of the source, which are not always exact repeats. Equal entries are not always repeated. Where two headings read alike, the source gives them in different places. Marks after values point to notes of the source that are not given here.
Assays:
[1] = Particle size of micronized magnesium isoglycyrrhizinate; type: physicochemical; conditions: micronized active ingredient
From the text: The magnesium isoglycyrrhizinate was micronized to obtain samples having the following different particle size ranges.

[2] = test system: tracheal secretion in mice; test: Mouse phenol red excretion assay (tracheal secretion); type: in vivo, ICR mice; conditions: 1.0 g/kg/d*6 d, i.g. 6 d
Procedure: 50 male ICR mice, weighing about 21 g, were randomly divided into 5 groups: control group 1 (normal saline, NS), control group 2 (normal saline, NS), positive control group (ammonium chloride, 1 g/kg), drug group 1 (0.2 mg/ml of magnesium isoglycyrrhizinate liquid preparation for use in nebulizers, nebulizing for 30 min), drug group 2 (0.2 mg/ml of magnesium isoglycyrrhizinate liquid preparation for use in nebulizers, nebulizing for 15 min). The mice in control group 1 and the positive control group were intragastrically administered with the corresponding drugs (0.1 ml/10 g), the mice in control group 2 and the drug group 1 were aerosolizing administered with a nebulizer for 30 min, while the mice in drug group 2 were 15 min. The administration frequency was once a day for 6 consecutive days. Before the 6th administration, the mice were starved for 16-18 hours, only allowed for drinking water. After 30 minutes of administration, i.p. 1% phenol red physiological in saline solution 0.2 ml/10 g was injected and 30 minutes later, the mice were killed by cervical dislocation. […] Among them, each drug group was compared with the control group 2, ^ΔΔp<0.01.

[3] = test system: COPD rats; test: Pathological score of lung of COPD rats (HE staining); type: in vivo, SD rats; parameters: key to Pathological score, Comprehensive score / Pathological score, Emphysema / Pathological score, Inflammatory cell infiltration / Pathological score, Bronchial mucus secretion: lesion score 0 = none, 0.5 slight … 4 = very severe; group mean±SD
Procedure: (§1) After modeling chronic obstructive pulmonary disease model induced by cigarette smoke inhalation, male SD rats were randomly divided into 6 groups according to the body weight: high dose tracheal instillation group (1.67 mg/ml of magnesium isoglycyrrhizinate, 100 μl/rat), low dose tracheal instillation group (1.67 mg/ml, 25 μl/rat), aerosolizing inhalation group, model group and blank control group, 10 rats in each group. During the intervention period, except that the control group and the model group were given normal saline, the other groups were successive administered every day, lasted for 15 days. During the administration period, the administration groups continued to be given with smoke stimulation after 30 minutes of administration, and the mental state, breathing, activity, hair luster, weight gain of the rats were recorded every day. 12 hour after the last administration, whole blood was taken from the rat eye for determination of white blood cell count and cell classified comparison. […] The right lung was ligated at the right main branch, and the left lung was lavaged with normal saline 2 ml×3 times. The recovery rate was about 80%. The bronchoalveolar lavage fluid (BALF) was prepared for the determination of white blood cell count and classified comparison (white blood cells, neutrophils, lymphocytes and monocytes). Finally, the right lung of rat was fixed with 10% formalin and HE stained, lung injury was observed under microscope, and pathological lesions were scored. All scores were accumulated, and the average score of each animal in each group was calculated (mean±SD).
Scoring indicators: (1) whether there was mucus and cell blockage in the small airway cavity; (2) whether the small airway epithelium had necrotic erosion; (3) small airway epithelial cells goblet cell metaplasia; (4) small airway epithelial cell squamous metaplasia; (5) small airway wall inflammation cell infiltration; (6) small airway wall fibrous connective tissue hyperplasia; (7) small airway wall smooth muscle hyperplasia; (8) small airway wall pigmentation; and (9) lung emphysema. Lesion score: according to the degree from light to heavy lesions, it was quantified as slight or very small amount for “0.5 point”, mild or small amount for “1 point”, moderate or more quantity amount for “2 points”, severe or plenty amount for “3 points”, very severe or large amount for “4 points”, and no obvious lesions for 0 point.
(§2) The experimental result data was expressed in the form of mean±SD. One-way ANOVA combined with Post-Hoc (LSD method) was used to analyze the differences between groups. Statistical significance was expressed as a P value of less than 0.05. The model group was compared with the blank control group, #p<0.05, #p<0.01; each administration group of magnesium isoglycyrrhizinate was compared with the model group, *p<0.05, **p<0.01.

[4] = test system: COPD rats; test: White blood cell count and cell classified comparison in BALF of COPD rats; type: in vivo, SD rats
Procedure: as §1, §2

[5] = Body weight of COPD rats (cigarette smoke inhalation model); type: in vivo, SD rats; conditions: in g (unit assumed)
Procedure: as §1, §2

[6] = Pharmacokinetic evaluation after inhalation/intragastric administration to rats; type: in vivo, SD rats; conditions: for Cmax/Dose: in (µg/L)/(mg/kg); for AUC(0-t)/Dose: in (µg·h/L)/(mg/kg); for MRT last: read-out: MRT(0-t); for half-life: read-out: t½ z (converted)
Procedure: Eight healthy male SD rats, weighing 223-252 g, were fed with standard formula granule feed of rats on time every day. The rats were fasted for 16 h before the experiment, and were refeeded at 4 h after the administration. Drinking water was free before, after and during the experiment. The rats were randomly divided into two groups, 4 rats in each group, and each rat was inhalation administrated with a single dose of magnesium isoglycyrrhizinate liquid preparation for use in nebulizers (2.5 mg/mL) and intragastric administrated with magnesium isoglycyrrhizinate inhaled preparation (5.0 mg/mL, the amount of isoglycyrrhizic acid is 4.486 mg/mL) respectively. Each rat in the inhalation administration group was given 200 μL of magnesium isoglycyrrhizinate liquid preparation for use in nebulizers (the actual dose given to the rat was 2.24-2.49 mg/kg). The dose in the intragastric administration group was 10.0 mg/kg. 0.2-0.3 mL of blood was taken from the fundus venous plexus before administration (0 h) and 0.0833 h, 0.25 h, 0.5 h, 1 h, 2 h, 4 h, 6 h, 8 h, 10 h, 24 h after administration. EDTA-K2 was used for anticoagulation, and the plasma was centrifuged. Then 50 μL was accurately measured, added with 10 μL internal standard solution to vortex and mixed, then added with 200 μL methanol, and mixed in high speed vortex mixer for 3 min, centrifuged for 10 min (4° C., 13000 rpm). The supernatant was collected, and 100 μL thereof was transferred to a 96-well plate. 50 μL of ultrapure water was added, vortexed, LC-MS/MS was used for detection, and the chromatogram was recorded.

[7] = test system: COPD rats; test: White blood cell count and cell classified comparison in blood of COPD rats; type: in vivo, SD rats
Procedure: as §1, §2

[8] = test system: COPD rats; test: General symptoms of COPD rats (cigarette smoke inhalation model); type: in vivo, SD rats; conditions: high dose and low dose tracheal infusion and nebulization, versus model group
Procedure: as §1, with “The recovery rate was about 80%. The bronchoalveolar lavage fluid (BALF) was prepared for the determination of white blood cell count and classified comparison (white blood cells, neutrophils, lymphocytes and monocytes).” left out

[9] = intravenous, 30.0 mg/kg, cited from earlier work
[10] = aerosolizing inhalation, 0.4 mg/ml, 30 min
[11] = high dose tracheal instillation, 1.67 mg/ml, 100 μl
[12] = low dose tracheal instillation, 1.67 mg/ml, 25 μl
[13] = male, SD, rat, plasma, inhaled or intranasal, inhalation, 2.4 mg/kg
[14] = male, SD, rat, plasma, po, intragastric, 10 mg/kg

Structure (SMILES): CC1(C)[C@@H](O[C@H]2O[C@H](C(=O)[O-])[C@@H](O)[C@H](O)[C@H]2O[C@@H]2O[C@H](C(=O)[O-])[C@@H](O)[C@H](O)[C@H]2O)CC[C@]2(C)[C@H]3C(=O)C=C4[C@H]5C[C@@](C)(C(=O)O)CC[C@]5(C)CC[C@@]4(C)[C@]3(C)CC[C@@H]12.[Mg+2] [Large particle size, magnesium isoglycyrrhizinate]
- X10 [1]: 1.47 μm
- X50 [1]: 5.75 μm

Structure (SMILES): CC1(C)[C@@H](O[C@H]2O[C@H](C(=O)[O-])[C@@H](O)[C@H](O)[C@H]2O[C@@H]2O[C@H](C(=O)[O-])[C@@H](O)[C@H](O)[C@H]2O)CC[C@]2(C)[C@H]3C(=O)C=C4[C@H]5C[C@@](C)(C(=O)O)CC[C@]5(C)CC[C@@]4(C)[C@]3(C)CC[C@@H]12.[Mg+2] [Medium particle size, magnesium isoglycyrrhizinate]
- X10 [1]: 1.38 μm
- X50 [1]: 5.08 μm

Structure (SMILES): CC1(C)[C@@H](O[C@H]2O[C@H](C(=O)[O-])[C@@H](O)[C@H](O)[C@H]2O[C@@H]2O[C@H](C(=O)[O-])[C@@H](O)[C@H](O)[C@H]2O)CC[C@]2(C)[C@H]3C(=O)C=C4[C@H]5C[C@@](C)(C(=O)O)CC[C@]5(C)CC[C@@]4(C)[C@]3(C)CC[C@@H]12.[Mg+2] [Small particle size, magnesium isoglycyrrhizinate]
- X10 [1]: 0.58 μm
- X50 [1]: 2.03 μm

Structure (SMILES): Cl.N [ammonium chloride]
- Amount of phenol red excretion [2]: 0.5924 ± 0.3781 µg/mL

Structure (SMILES): CC1(C)[C@@H](O[C@H]2O[C@H](C(=O)[O-])[C@@H](O)[C@H](O)[C@H]2O[C@@H]2O[C@H](C(=O)[O-])[C@@H](O)[C@H](O)[C@H]2O)CC[C@]2(C)[C@H]3C(=O)C=C4[C@H]5C[C@@](C)(C(=O)O)CC[C@]5(C)CC[C@@]4(C)[C@]3(C)CC[C@@H]12.[Mg+2] [magnesium isoglycyrrhizinate, magnesium (18α,20β)-20-carboxy-11-oxo-30-norolean-12-ene-3β-yl-2-O-β-D-pyranoglucuronyl-α-D-pyranoglucuronate]
- Pathological score, Bronchial mucus secretion [3, 10]: 0.278 ± 0.363
- Pathological score, Comprehensive score [3, 10]: 0.89 ± 0.65*
- Pathological score, Emphysema [3, 10]: 0.222 ± 0.441
- Pathological score, Inflammatory cell infiltration [3, 10]: 0.389 ± 0.333**
- Pathological score, Bronchial mucus secretion [3, 11]: 0.050 ± 0.158**
- Pathological score, Comprehensive score [3, 11]: 0.90 ± 0.52*
- Pathological score, Emphysema [3, 11]: 0.300 ± 0.422
- Pathological score, Inflammatory cell infiltration [3, 11]: 0.450 ± 0.550*
- Lung pathology of COPD rats (in words) ([3]; high dose, low dose tracheal infusion and aerosolizing inhalation groups): significantly reduce lung inflammation, improve bronchial wall function, reduce bronchial mucus secretion and improve emphysema
- Pathological score, Bronchial mucus secretion [3, 12]: 0.200 ± 0.350
- Pathological score, Comprehensive score [3, 12]: 0.80 ± 0.50*
- Pathological score, Emphysema [3, 12]: 0.150 ± 0.337
- Pathological score, Inflammatory cell infiltration [3, 12]: 0.400 ± 0.394**
- Neutrophil count [4, 10]: 57.83 ± 20.78 10/μl
- Percentage of neutrophils [4, 10]: 38.83 ± 21.02%
- White blood cell count [4, 10]: 170.33 ± 55.17 10/μl
- Neutrophil count [4, 11]: 89.88 ± 21.57* 10/μl
- Percentage of neutrophils [4, 11]: 48.89 ± 9.69%
- White blood cell count [4, 11]: 184.38 ± 32.15 10/μl
- Neutrophil count [4, 12]: 66.38 ± 25.46 10/μl
- Percentage of neutrophils [4, 12]: 38.08 ± 12.86%
- White blood cell count [4, 12]: 172.50 ± 26.52 10/μl
- Body weight, End weight [5, 10]: 360.11 ± 18.84**
- Body weight, Initial weight [5, 10]: 319.22 ± 10.43**
- Body weight, End weight [5, 11]: 358.20 ± 16.17**
- Body weight, Initial weight [5, 11]: 324.6 ± 12.22**
- Body weight, End weight [5, 12]: 350.80 ± 27.79**
- Body weight, Initial weight [5, 12]: 317.60 ± 24.23**
- CLz/F ([6]; inhalation, 2.4 mg/kg): 3.25 mL/min/kg and 3.25 ± 1.72 mL/min/kg
- t½ z ([6]; inhalation, 2.4 mg/kg): 2.13 ± 0.69 h
- Cmax/Dose ([6]; inhalation, 2.4 mg/kg): 1315 and 1315 ± 306
- AUC(0-t)/Dose ([6]; inhalation, 2.4 mg/kg): 6108 and 6108 ± 2577
- CLz/F ([6]; intragastric, 10 mg/kg): 2700 mL/min/kg
- Cmax/Dose ([6]; intragastric, 10 mg/kg): 2.73
- AUC(0-t)/Dose ([6]; intragastric, 10 mg/kg): 8.98
- Cmax ([6]; male, SD, rat, inhaled or intranasal, inhalation, liquid preparation for nebulizers 2.5 mg/mL, 200 μL, 2.4 mg/kg, plasma): 3110 ng/mL
- AUC(0-inf) [6, 13]: 14600 ng·h/mL
- AUC(0-t) [6, 13]: 14600 ng·h/mL
- Tmax [6, 13]: 0.81 h
- MRT last [6, 13]: 3.52 h
- half-life [6, 13]: 2.13 h
- bioavailability ([6]; male, SD, rat, plasma, inhaled, inhalation compared with intravenous administration (literature), read-out: Relative F %): 87%
- AUC(0-inf) [6, 14]: 102 ng·h/mL
- AUC(0-t) [6, 14]: 89.8 ng·h/mL
- Tmax [6, 14]: 1.75 h
- MRT last [6, 14]: 2.35 h
- half-life [6, 14]: 1.88 h
- Cmax ([6]; male, SD, rat, po, intragastric, 5.0 mg/mL, 10 mg/kg, plasma): 27.3 ng/mL
- Neutrophil count [7, 10]: 123.67 ± 23.24** 10/μl
- Percentage of neutrophils [7, 10]: 11.05 ± 1.61** %
- White blood cell count [7, 10]: 1123.33 ± 170.54 10/μl
- Neutrophil count [7, 11]: 153.25 ± 40.12* 10/μl
- Percentage of neutrophils [7, 11]: 11.31 ± 3.55* %
- White blood cell count [7, 11]: 1395.13 ± 270.32 10/μl
- Neutrophil count [7, 12]: 155.13 ± 26.25* 10/μl
- Percentage of neutrophils [7, 12]: 13.80 ± 2.24* %
- White blood cell count [7, 12]: 1135.13 ± 155.73 10/μl
- General symptoms of COPD rats [8]: relieved compared with the model group
- Cmax ([9]; N = 6, literature): 354500 ng/mL
- AUC(0-t) ([9]; literature): 209591 ng·h/mL
- AUC(0-t)/Dose ([9]; literature): 6986
- AUC(0-∞) ([9]; literature): 212295 ng·h/mL
- CLz/F ([9]; literature): 2355 mL/min/kg
- Cmax/Dose ([9]; literature): 11817
- MRT(0-t) ([9]; literature): 1.71 h
- Tmax ([9]; literature): 5 min
- t1/2 z ([9]; literature): 2.06 h

Reference: patent US11534398B2, “Inhaled preparation of isoglycyrrhizic acid or salt thereof, and use in preparing drugs for treating respiratory system diseases” (priority 2016, dated 2022)
